Measurements as given in article PMC4746275, “Norfloxacin and N-Donor Mixed-Ligand Copper(II) Complexes: Synthesis, Albumin Interaction, and Anti-Trypanosoma cruzi Activity” (Bioinorganic Chemistry and Applications, 2016).
Like-named read-outs stand apart in the source and are kept apart here.

Key:
[1] = test system: bloodstream trypomastigotes (BT) forms of T. cruzi (Y strain); test: Trypanocidal analysis in vitro on bloodstream trypomastigotes; type: cell-based, Trypanosoma cruzi; conditions: for SI (selective index: ratio between LC50/EC50 values): LC50 on mammalian cardiac cells (24 h) / EC50 on BT forms; for EC50: mean ± SD, 24 h of incubation at 37°C, Y strain, read-out: EC50 (drug concentration which reduces the number of the parasites by 50%); for times more active than benznidazole: comparison of EC50 values on bloodstream trypomastigotes
Procedure: Y strain of T. cruzi was used throughout the experiments. Bloodstream forms were harvested by heart puncture from T. cruzi-infected Swiss mice at the peak of parasitemia.
For the in vitro analysis on trypomastigotes, the parasites were incubated at 310 K in the presence of increasing doses (0–200 μM) of each compound diluted in Dulbecco's modified Eagle's medium which was supplemented with 5% fetal bovine serum and 1 mM L-glutamine (DMES). After 24 h, death rates were determined by light microscopy through the direct quantification of live parasites using Neubauer chamber, and EC50 values (drug concentration which reduces 50% of the number of live parasites) were then calculated as reported.

[2] = molecular target: T1, bovine serum albumin (BSA) (Bos taurus, UniProt P02769); test: Quenching of BSA intrinsic fluorescence (Stern-Volmer); type: binding; conditions: BSA 4 × 10^−6 mol L^−1, 296 K, pH 7.4; standard error 0.2 × 10^4 L mol^−1; corrected for inner filter effect
T1 construct: purchased Sigma-Aldrich
Procedure: (§1) Steady state fluorescence measurements were performed on a Varian-Agilent Cary Eclipse or a PTI QM1 fluorescence system. UV-Vis absorption spectra were obtained with an Agilent diode array spectrophotometer model 8452A. Fluorescence lifetimes were measured using IBH-Horiba-Jobin Yvon TCSPC system. NanoLEDs with 1.0 ns nominal pulse duration and 1 MHz repetition rate were used as light sources for exciting the intrinsic HSA or BSA fluorescence (283 nm) and NOR fluorescence (330 nm).
(§2) Quenching measurements of albumin fluorescence were taken in 3 mL of BSA or HSA (4 × 10^−6 mol L^−1) in phosphate buffer 10 mM at pH 7.4. The albumin solutions were titrated by successive additions of the complex stock solutions. The fluorescence emission spectra of BSA and HSA were measured using an excitation wavelength of 290 nm. Experiments were performed at ambient temperature (296 K) and pH 7.4.
(§3) In this section, the quenching of BSA and HSA fluorescence by Cu(II) ions, Cu(II)-bipy, Cu(II)-phen, and complexes 1 and 2 was monitored. All the UV absorption and emission spectra were registered. The fluorescence decay curves with excitation at 283 nm and emission at 340 nm were obtained in the absence of the quenchers, at an intermediary and at the final quencher concentration. The raw data are available in Supplementary Material available online at http://dx.doi.org/10.1155/2016/5027404. The fluorescence intensity was attenuated by absorption of the incident and emitted light. […] The fluorescence spectra were corrected using the following expression:(2) Fcorr=Fobs10^Aex+Aeml/2, where F corr and F obs are the corrected and observed fluorescence intensity, A ex and A em are the absorbance at the excitation and emission wavelengths, respectively, and ℓ is the optical path in cm.
(§4) Quenching of a fluorophore by a drug can occur by a static or dynamic process. Static or dynamic quenching at a single site can be described by the Stern-Volmer equation [36]:(3) F0/F=1+KSVQ, where F 0 and F are the fluorescence intensities of albumins in the absence and presence of complexes, respectively. [Q] is the quencher concentration, and K SV is the Stern-Volmer quenching constant, which is related to the bimolecular collisional process in dynamic quenching but is the association constant in static quenching. Stern-Volmer constants were obtained for the linear region of the plots (Table 3).

[3] = molecular target: T2, human serum albumin (HSA) (Homo sapiens, UniProt P02768); test: Quenching of HSA intrinsic fluorescence (Stern-Volmer); type: binding; conditions: HSA 4 × 10^−6 mol L^−1, 296 K, pH 7.4; standard error 0.2 × 10^4 L mol^−1; corrected for inner filter effect
T2 construct: purchased Sigma-Aldrich
Procedure: as §1, §2, §3, §4

[4] = test system: bloodstream trypomastigotes (BT) forms of T. cruzi (Y strain); set-up: method as in Martins et al., 2012 [14]; conditions: ref Martins et al., 2012 [14], cited from earlier work; for SI (selective index: ratio between LC50/EC50 values): LC50 on mammalian cardiac cells / EC50 on BT forms; for EC50: mean ± SD, 24 h of incubation at 37°C, Y strain, read-out: EC50 (drug concentration which reduces the number of the parasites by 50%)

T2 sequence (P02768 25-609): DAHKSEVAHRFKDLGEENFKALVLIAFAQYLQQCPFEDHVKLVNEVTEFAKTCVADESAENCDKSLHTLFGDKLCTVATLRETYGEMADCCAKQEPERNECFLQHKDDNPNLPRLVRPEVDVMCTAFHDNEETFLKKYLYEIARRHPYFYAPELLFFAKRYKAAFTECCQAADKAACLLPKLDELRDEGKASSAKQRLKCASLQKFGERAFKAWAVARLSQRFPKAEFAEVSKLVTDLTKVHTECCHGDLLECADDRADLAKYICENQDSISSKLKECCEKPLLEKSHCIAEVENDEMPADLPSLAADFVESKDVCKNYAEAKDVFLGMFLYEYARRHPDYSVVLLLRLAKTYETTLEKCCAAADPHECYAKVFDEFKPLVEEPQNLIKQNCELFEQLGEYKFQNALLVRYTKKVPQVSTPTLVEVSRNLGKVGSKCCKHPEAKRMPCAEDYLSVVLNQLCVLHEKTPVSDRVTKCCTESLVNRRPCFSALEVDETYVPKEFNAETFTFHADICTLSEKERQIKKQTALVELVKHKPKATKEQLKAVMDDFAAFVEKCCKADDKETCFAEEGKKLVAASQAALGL
T1 sequence (P02769 25-607): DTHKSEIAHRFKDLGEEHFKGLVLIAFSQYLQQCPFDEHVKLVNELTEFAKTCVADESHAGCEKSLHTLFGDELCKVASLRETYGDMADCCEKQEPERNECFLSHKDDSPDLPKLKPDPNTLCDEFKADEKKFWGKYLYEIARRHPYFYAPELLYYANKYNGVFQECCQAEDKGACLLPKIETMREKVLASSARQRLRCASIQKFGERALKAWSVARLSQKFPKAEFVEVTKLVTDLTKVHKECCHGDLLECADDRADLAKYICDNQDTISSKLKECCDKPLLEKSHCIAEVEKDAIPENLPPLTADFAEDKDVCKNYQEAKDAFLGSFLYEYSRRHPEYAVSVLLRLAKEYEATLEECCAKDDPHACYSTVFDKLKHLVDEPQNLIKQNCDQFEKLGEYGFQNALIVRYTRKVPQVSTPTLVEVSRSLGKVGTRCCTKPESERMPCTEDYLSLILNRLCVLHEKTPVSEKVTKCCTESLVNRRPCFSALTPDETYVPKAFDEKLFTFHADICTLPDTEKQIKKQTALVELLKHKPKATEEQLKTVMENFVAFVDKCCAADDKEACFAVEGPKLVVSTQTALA

Row | Compound | SI (selective index: ratio between LC50/EC50 values) [1] | EC50 ([1]; Trypanosoma cruzi) | K SV (Stern-Volmer constant) [2] | K SV (Stern-Volmer constant) [3] | SI (selective index: ratio between LC50/EC50 values) [4] | EC50 [4] | EC50 [1] | times more active than benznidazole [1]
1 | O=C(Cn1ccnc1[N+](=O)[O-])NCc1ccccc1 [Benznidazole] | 77 | 13 ± 2 µM | – | – | – | – | – | –
2 | [Cu+2] [Cu(II)] | – | – | 35000 L/mol | 29000 L/mol | – | – | – | –
3 | [Cl][Cu][Cl] [CuCl2] | – | – | – | – | 6 | 83 ± 3 µM | – | –
4 | CCn1cc(C(=O)O)c(=O)c2cc(F)c(N3CCNCC3)cc21 [Norfloxacin, 1-ethyl-6-fluoro-1,4-dihydro-4-oxo-7-(1-piperazinyl)-quinoline-3-carboxylic acid] | >1.25 | 126 ± 30 µM | – | – | – | – | – | –
5 | [Cl][Cu][Cl].c1ccc(-c2ccccn2)nc1 [[CuCl2(bipy)]] | – | – | 31000 L/mol | 50000 L/mol | 4.5 | 14 ± 7 µM | – | –
6 | [CuCl2(NOR)] | 0.8 | – | – | – | – | – | 78 ± 12 µM | –
7 | [CuCl2(phen)(NOR)]·3H2O [complex 2] | 2.68 | – | 37000 L/mol | 49000 L/mol | – | – | 4.4 ± 1.4 µM | 2-3 times
8 | [CuCl2(phen)] | – | – | 35000 L/mol | 51000 L/mol | <4 | 7 ± 5 µM | – | 2-3 times
9 | [CuCl(bipy)(NOR)]Cl·2H2O [complex 1] | 4 | – | 30000 L/mol | 58000 L/mol | – | – | 16 ± 4 µM | –
